Test results published in patent publication US20150099709A1, “GHRELIN RECEPTOR AGONISTS FOR THE TREATMENT OF ACHLORHYDRIA” (RaQualia Pharma Inc., priority 2012, published 2015).

Test system: intra-gastric pH
Test: Measurement of intra-gastric pH in dogs (gastric fistula, pH electrode)
Format: in vivo, dog
Conditions: for change of intra-gastric pH value after dosing / time for which the low intra-gastric pH is maintained: dogs, orally, dose not given
Experimental: Male beagle dogs are used. A metallic cannula is placed in on the left side of the abdomen at the lowest part of the distal gastric corpus region near the greater curvature by a surgical operation. Intra-gastric pH is measured continuously by a flexible pH electrode inserted via the gastric fistula. Vehicle or drugs are administered orally to the dogs.
Compound A 3 mg/kg is orally administered to dogs in a similar way described in Example 1. Intra-gastric pH value is between 2 and 7 in the vehicle-treated conscious dogs.

Question: With `CN1N=C2CCN(C(=O)[C@@H](COCc3ccccc3)NC(=O)C(C)(C)N)C[C@@]2(Cc2ccccc2)C1=O` [Compound A, 2-amino-N-[2-(3a-(R)-benzyl-2-methyl-3-oxo-2,3,3a,4,6,7-hexahydropyrazolo[4,3-c]pyridin-5-yl)-1-(R)-benzyloxymethyl-2-oxo-ethyl]isobutyramide] as the compound, how does the “time for which the low intra-gastric pH value is maintained” value (male beagle dogs, 3 mg/kg orally) read?
Answer: more than 3 hours

Question: What about the “intra-gastric pH value maintained after administration” value (male beagle dogs, 3 mg/kg orally, both dogs) of the same compound?
Answer: below 2.5

Question: And the “change of intra-gastric pH value after administration” value (male beagle dogs, 3 mg/kg orally, conscious, FIG. 2)?
Answer: rapidly decreases after the administration

Question: Which results are given for `CC(C)(N)C(=O)N[C@H](COCc1ccc(F)cc1F)C(=O)N1CCC2=NN(CC(F)(F)F)C(=O)[C@]2(Cc2ccccn2)C1` [Compound B, 2-amino-N-[1-(R)-(2,4-difluoro-benzyloxymethyl)-2-oxo-2-(3-oxo-3a-(R)-pyridin-2-ylmethyl-2-(2,2,2-trifluoro-ethyl)-2,3,3a,4,6,7-hexahydropyrazolo[4,3-c]pyridin-5-yl)-ethyl]-2-methyl-propionamide]?
Answer: change of intra-gastric pH value after dosing: decreases soon just after dosing; time for which the low intra-gastric pH is maintained: more than 3 hours

Question: `CN(C)N(C)C(=O)[C@@]1(Cc2ccccc2)CCCN(C(=O)[C@@H](Cc2c[nH]c3ccccc23)NC(=O)C(C)(C)N)C1` [Compound C] was tested. Which “change of intra-gastric pH value after dosing” value did it give?
Answer: decreases soon just after dosing

Question: What about the “time for which the low intra-gastric pH is maintained” value of the same compound?
Answer: more than 3 hours

Question: How did the “change of intra-gastric pH value after dosing” value turn out when `CN(C(=O)/C=C/CC1(N)CCC1)[C@H](Cc1ccc(-c2ccccc2)cc1)C(=O)N(C)[C@H](Cc1ccccc1)C(=O)N1CCC(O)CC1` [Compound D, (E)-N—((R)-3-([1,1′-biphenyl]-4-yl)-1-(((R)-1-(4-hydroxypiperidin-1-yl)-1-oxo-3-phenylpropan-2-yl)(methyl)amino)-1-oxopropan-2-yl)-4-(1-aminocyclobutyl)-N-methylbut-2-enamide] was run?
Answer: decreases soon just after dosing

Question: What about the “time for which the low intra-gastric pH is maintained” value of the same compound?
Answer: more than 3 hours

Question: What does the source list for `C[C@@H]1CN[C@@H](C2CC2)C(=O)N(C)[C@H](C)C(=O)N[C@H](Cc2ccc(F)cc2)C(=O)NCCCc2ccccc2O1` [Compound E, (2R,5S,8R,11R)-5-cyclopropyl-11-(4-fluorobenzyl)-2,7,8-trimethyl-4,5,7,8,10,11,13,14,15,16-decahydro-2H-benzo[q][1,4,7,10,13]oxatetraazacyclooctadecine-6,9,12(3H)-trione]?
Answer: change of intra-gastric pH value after dosing: decreases soon just after dosing; time for which the low intra-gastric pH is maintained: more than 3 hours
